Measurements from PubChem BioAssay (NCI).
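Method: 48-hour compound exposure of cells in 96-well plates, five concentrations, linear interpolation of endpoints. TGI: total growth inhibition.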 Where a SMILES comes first, the peptide text is derived from it. The star is where a group is joined. Boc = CC(C)(C)OC(=O)*

How the values were obtained:
Experiment in all cases: DTP human tumour cell line panel, 48 h
[1] = test system: NCI/ADR-RES ovarian
[2] = test system: TK-10 renal
[3] = test system: HS 578T breast
[4] = test system: K-562 leukemia
[5] = test system: SK-MEL-2 melanoma
[6] = test system: CCRF-CEM leukemia
[7] = test system: NCI-H460 lung
[8] = test system: OVCAR-4 ovarian
[9] = test system: OVCAR-8 ovarian
[10] = test system: NCI-H23 lung

Compound | TGI [1] | TGI [2] | TGI [3] | TGI [4] | TGI [5] | TGI [6] | TGI [7] | TGI [8] | TGI [9] | TGI [10]
C[C@@]1(CCCCCCCCCCc2ccccc2)C[C@@]2(C)OC(=O)C[C@H]2OO1 | 55.8 µM | 7.28 µM | 7.13 µM | 13.6 µM | 45 µM | 3.34 µM | 5.06 µM | 5.03 µM | 31.7 µM | 2.9 µM
Cc1cc2cc3cc(C)c(N)cc3nc2cc1N | 9.83 µM | 1.62 µM | 10.5 µM | 3.28 µM | 10.4 µM | 2.52 µM | 1.21 µM | 1.49 µM | 2.2 µM | 2.24 µM
O=c1c2c3c(sc2nc2n1N=CN(c1ccccc1)C2)CCCC3 | > 100 µM | > 100 µM | > 100 µM | > 100 µM | > 100 µM | > 100 µM | > 100 µM | > 100 µM | > 100 µM | > 100 µM
COC(=O)Nc1nc2ccc(S(=O)(=O)Nc3ccccn3)cc2[nH]1 | > 100 µM | 70.3 µM | > 100 µM | 75.9 µM | > 100 µM | 54.2 µM | > 100 µM | > 100 µM | > 100 µM | > 100 µM
COc1ccccc1NC(=S)N=Nc1c(O)[nH]c2ccccc12 | > 100 µM | > 100 µM | > 100 µM | > 100 µM | > 100 µM | > 100 µM | > 100 µM | > 100 µM | > 100 µM | > 100 µM
Cc1nnc(N)nc1/C=C\c1ccc(Cl)cc1Cl | > 100 µM | > 100 µM | 99.2 µM | > 100 µM | 32.6 µM | 86.4 µM | 42.8 µM | > 100 µM | > 100 µM | > 100 µM
COc1cc(C2c3cc4c(cc3OC(NNC(N)=O)C2C)OCO4)cc(OC)c1OC (stereo not given) | > 100 µM | > 100 µM | > 64.9 µM | 2.82 µM | > 100 µM | 0.507 µM | > 89.8 µM | > 100 µM | > 100 µM | > 100 µM
O=C1c2cc(I)ccc2N2CCN=C2N1Cc1ccccc1 | > 100 µM | > 100 µM | > 100 µM | > 100 µM | > 100 µM | > 100 µM | > 100 µM | > 100 µM | > 100 µM | > 100 µM
CCC(=O)Nc1cccc(N=Cc2ccc(OC(=O)/C=C\c3ccccc3)cc2)c1 | > 75 µM | > 75 µM | > 75 µM | > 75 µM | > 75 µM | > 75 µM | > 75 µM | > 75 µM | > 75 µM | > 75 µM
C=C(C)[C@@H](O)[C@H](O)C[C@H](C)C1CC[C@]2(C)C1=CC[C@@H]1[C@@]3(C)CC[C@@H](OC(C)=O)C(C)(C)[C@@H]3C[C@@H](OC3OC(COC(C)=O)C(O)C(O)C3O)[C@]12C (stereo not given in full) | 32 µM | 10.6 µM | 10 µM | 5.21 µM | 3.63 µM | 5.95 µM | 6.51 µM | 9.17 µM | 13.8 µM | 16.1 µM
CCOC(=O)c1[nH]cc(C)c1-c1cccn1-c1ccc(Cl)cc1[N+](=O)[O-] | 52.9 µM | 41.7 µM | 51.2 µM | 53.3 µM | 39.2 µM | 64.3 µM | 48 µM | > 100 µM | 78.9 µM | > 100 µM
O[C@@H]1C[C@H](Cl)c2c(Cl)sc(Cl)c21 | > 100 µM | > 100 µM | > 100 µM | > 100 µM | > 100 µM | > 100 µM | > 100 µM | > 100 µM | > 100 µM | > 100 µM
O=C1/C(=C/c2ccc(O)cc2)CCCC1CN1CCCCC1 (stereo not given) | 29.6 µM | 8.64 µM | 11.5 µM | > 24.4 µM | 26.9 µM | > 100 µM | 30.7 µM | 25.8 µM | 13.6 µM | 11.8 µM
COC(=O)C(Cc1ccccc1)NC(=O)C(CS)NC(=O)OC(C)(C)C (stereo not drawn) (Boc-Cys-Phe-OMe; configuration not given here) | > 100 µM | > 100 µM | > 100 µM | > 100 µM | > 100 µM | 89.3 µM | > 100 µM | > 100 µM | > 100 µM | > 100 µM
CSc1ncc2c(n1)-c1ccccc1OC2N1CCOCC1 (stereo not given) | > 100 µM | > 100 µM | > 100 µM | > 100 µM | > 100 µM | > 100 µM | > 100 µM | > 100 µM | > 100 µM | > 100 µM
CCN1c2ccccc2NC(=S)c2c1n[nH]c2-c1ccccc1 | 60.9 µM | > 100 µM | > 100 µM | 39.8 µM | 60.1 µM | 49.4 µM | 77.2 µM | > 100 µM | > 100 µM | > 100 µM
CC(=O)OCC1OC(n2cnc3nc(Br)[nH]c(=O)c32)C(OC(C)=O)C1OC(C)=O (stereo not given) | > 100 µM | > 100 µM | > 100 µM | > 100 µM | > 100 µM | > 100 µM | > 100 µM | > 100 µM | > 100 µM | > 100 µM

Compound | TGI [1] | TGI [2] | TGI [3] | TGI [4] | TGI [5] | TGI [6] | TGI [7] | TGI [8] | TGI [9] | TGI [10]
CC(=O)C1=C(C)O[C@@H]2O[C@H](COCc3ccccc3)[C@@H](OCc3ccccc3)[C@H](O)[C@@H]2S1 | 51.6 µM | 51.3 µM | 39.9 µM | 50.3 µM | 39.1 µM | 16.8 µM | 38.9 µM | 73.7 µM | 55.3 µM | 59.9 µM
Clc1ccc(CCNC2(c3cc4ccccc4s3)CCCCC2)cc1Cl | 80.8 µM | 65.9 µM | > 100 µM | 36.7 µM | 36.8 µM | 31 µM | 40.3 µM | > 100 µM | > 100 µM | > 100 µM
O=P(O)(O)c1ccc(-c2ccc(I)cc2)cc1 | > 100 µM | > 100 µM | > 100 µM | > 100 µM | > 100 µM | > 100 µM | > 100 µM | > 100 µM | > 100 µM | > 100 µM
CCOC(=O)/C=C(/C(=O)OCC)n1cc(C)c(=O)n(Cc2cnnn2COCCOC(C)=O)c1=O | 61.3 µM | 12.3 µM | 74 µM | 24.8 µM | 60.3 µM | 5.8 µM | > 61.5 µM | 47 µM | 29.1 µM | 31.5 µM
Cc1cc2nc3c(C#N)c4c(c(Nc5ccc(F)cc5)n3c2cc1C)CCC4 | > 100 µM | > 100 µM | > 100 µM | > 100 µM | > 100 µM | > 100 µM | > 100 µM | > 100 µM | > 100 µM | > 100 µM
N[C@H]1c2c(Br)sc(Br)c2C(=O)[C@H]1O | > 58.9 µM | > 100 µM | > 87.8 µM | 15.2 µM | 69.9 µM | 6.63 µM | 35.6 µM | 27 µM | 43.7 µM | 17.5 µM
COC(=O)CNC(=O)C(Cc1ccccc1)NC(=O)c1ccc(-c2ccc(Cl)cc2Cl)o1 (stereo not given) | > 100 µM | 75.2 µM | 52.1 µM | > 100 µM | 96.6 µM | 39.5 µM | 40.3 µM | > 100 µM | > 100 µM | > 100 µM
CC(C)=CC1C(C(=O)Oc2ccccc2C(C)C)C1(C)C (stereo not given) | > 100 µM | 96 µM | > 100 µM | 83.8 µM | 33.1 µM | 59.6 µM | 47 µM | > 100 µM | > 100 µM | 65.4 µM
COC(=O)CN(CC(=O)NCCCBr)C1CCCCC1N(CC(=O)OC)CC(=O)OC (stereo not given) | > 100 µM | > 100 µM | > 100 µM | > 100 µM | > 100 µM | > 100 µM | > 100 µM | > 100 µM | > 100 µM | > 100 µM
COc1cc(C2c3cc4c(cc3OC(NNc3ccccc3)C2C)OCO4)cc(OC)c1OC (stereo not given) | 58.6 µM | 31.8 µM | > 43.4 µM | > 32.1 µM | 38.6 µM | > 27.3 µM | 16.4 µM | > 100 µM | > 38.1 µM | > 100 µM
Cc1ncc([N+](=O)[O-])n1CC[N+](C)([O-])CCCCn1ccnc1[N+](=O)[O-] (stereo not given) | > 100 µM | > 100 µM | > 100 µM | > 100 µM | > 100 µM | > 100 µM | > 100 µM | > 100 µM | > 100 µM | > 100 µM
COC(=O)c1c(O)ccc2c1c1cc3ccccc3cc1n2Cc1cc(OC)cc(OC)c1 | > 29.2 µM | > 100 µM | 8.5 µM | > 100 µM | 24.6 µM | > 100 µM | > 100 µM | > 66.9 µM | > 100 µM | > 100 µM
Oc1c(CN2CCCC2)ccc2cccnc12 | 8.23 µM | 88.7 µM | > 100 µM | > 100 µM | > 95.6 µM | > 73.6 µM | > 84.6 µM | > 100 µM | 32.4 µM | 99.6 µM
O=C(CCBr)N1CCN(C(=O)CCBr)CC1 | 221 µM | 488 µM | 455 µM | 459 µM | 221 µM | 257 µM | 113 µM | 181 µM | 246 µM | 150 µM
CN(C)CN1CSC(=S)N(CN(C)C)C1 | > 100 µM | > 100 µM | > 100 µM | > 100 µM | 96.3 µM | > 100 µM | > 100 µM | > 100 µM | > 100 µM | > 100 µM
CC(C)(C)NC1=NC(C(F)(F)F)(C(F)(F)F)NC(=O)N1 | > 100 µM | > 100 µM | > 100 µM | > 100 µM | > 100 µM | > 100 µM | > 100 µM | > 100 µM | > 100 µM | > 100 µM
COc1ccc(-n2c(SC(CN3CCOCC3)CN3CCCC3=O)nc3ccccc3c2=O)cc1 (stereo not given) | > 100 µM | > 100 µM | > 100 µM | > 100 µM | > 100 µM | > 100 µM | > 100 µM | > 100 µM | > 100 µM | > 100 µM
